In general, melting point refers to the temperature, or range, at which the solid turns liquid. For the compound `CNC(=O)c1cccc(NC(=O)CCc2ccccc2C)c1`, the melting point was determined as 131 °C. Regarding `CS(=O)(=O)Nc1ccc(C#Cc2cnn3c(C(F)(F)F)cc(-c4ccc(C(F)(F)F)cc4)nc23)cn1`, the melting point was 261 to 263 °C.

`CCn1ncc2c3[nH]c4cc(C)nn4c(=O)c3cnc21` came in with a melting point above 300 °C. The same measure for `CCNC(=O)C1CCN(Cc2cnc3cc(NC(=O)c4ccc(-c5ccc(F)cc5)cc4)c(C)cc3c2)CC1`: 254 °C; for `CC1(C)COC(c2ccccc2S(N)(=O)=O)=N1`: 142 to 146 °C; for `CC(=O)c1c(N(C)C)c(-c2ccccc2)n(Cc2ccc(Cl)cc2)c1C`: 118 to 119 °C. The same measure for `NC(=O)c1ccc(-c2cccc3cc(Cc4cc(F)cc(Cl)c4)sc23)cc1`: 202 to 203 °C. Regarding `O=C1c2ccccc2C(=O)C1(O)c1ccccc1O`, the melting point was 155 to 159 °C.

The compound `COCOc1cc(OC)c(OCOC)c(CCCCCc2c(OC)c(OCOC)c(C)c(OC)c2OCOC)c1OC` returned a melting point of 76 to 77 °C. The value for `COC(=O)c1ccc(OCC=C(C)CCC=C(C)C)cc1` was 30 to 33 °C. The value for `CCOC(=O)C(C)(OC)C(=O)Nc1ccc(Br)cc1C` (stereo not given) was 99 to 103 °C; that for `CCCCCCCCCCCCN1CCN(CCCCCCNc2cc(OC)cc3c(C)ccnc23)CC1` was 53 to 55 °C; that for `CCS(=O)(=O)c1ccc(I)cc1` was 78 to 79 °C. The value for `CCCc1ccc(Oc2ccc3c(c2)OC(C(F)(F)F)C(C(=O)O)=C3)cc1` (stereo not given) was 144 to 146 °C.

With `COc1ccc(-n2c(=O)c(C(=O)C3=C(O)CCCC3=O)nc3c(Cl)cccc32)cc1`, the melting point was 249 to 251 °C. The compound `S=C1c2cccnc2N(c2ccccc2)C2=NCCN12` registered a melting point of 293 to 296 °C. The value for `CN(C(=O)CBr)c1ccc(OCC(=O)N[C@@H](CC(N)=O)C(=O)N[C@@H](Cc2ccccc2)[C@H](O)C(=O)N2CCC[C@H]2C(=O)NC(C)(C)C)cc1` was 116 to 122 °C; that for `CCOC(=O)C=CN1C(C)(C)CC(=O)CC1(C)C` was 145 °C; that for `CO[C@@H]1[C@H](O)[C@@H](CO)O[C@H]1n1cnc2c(N[C@H](C)Cc3ccc(Cl)s3)ncnc21` was 84 to 85 °C. The same measure for `Cc1cc2c(cc1Cl)NC(=O)C2(N)c1ccccc1Cl` (stereo not given): 233 °C. In turn, `Cc1ccc(N=C(Nc2ccc(C)cc2)ON2C(C)(C)CC(OC(=O)c3ccccc3)CC2(C)C)cc1` returned a melting point of 124 to 128 °C. In turn, `COc1ccccc1N1CCN(S(=O)(=O)c2ccc(Nc3ccnc4cc(C(F)(F)F)ccc34)cc2)CC1` returned a melting point of 146 to 148 °C.

`CN1CCN(C(=O)OC2C3=C(SCCS3)C(=O)N2c2ccc(Cl)cn2)CC1` (stereo not given) gave a melting point of 170 °C. Compound `C=C1C=CC=C1Cc1ccc(O)cc1` had a melting point of 143 to 144 °C. `CCCOc1ccc(F)cc1-c1ccc(C(N)=O)c(=O)[nH]1`: the melting point is 223 to 224 °C. On to `COc1ccccc1N1CCN(CCCCN(C(N)=O)C(C)(C)C)CC1`, for which the melting point lay in the range of 167 to 169 °C.

Turning to `COC(=O)C(Cc1ccccc1)Oc1c(Br)cc(-c2ccc(-c3nc(-c4ccc(C(F)(F)F)cc4)oc3C)cc2)cc1Br` (stereo not given), the melting point was 70 to 72 °C.

The compound `COc1ccc(-c2nccc3c(CC(=O)O)cccc23)cc1` returned a melting point of 210 to 211 °C. The value for `CNc1ccc(-c2ccnc(-c3cn(C)c(=O)n3-c3ccc(C(C)(C)C#N)cc3)c2)cn1` was 191 °C; that for `C[C@@H]1CN(C(=O)OC(C)(C)C)C[C@H]2Cc3cc(F)cnc3N21` was 56.6 to 58.4 °C; that for `Cn1ncc(S(=O)Cc2ccccc2)c(Cl)c1=O` (stereo not given) was 129 to 131 °C. The value for `N#Cc1ccc(Nc2nnc(Cc3ccncc3)c3ccccc23)cc1` was 228 to 230 °C; that for `CCC(=O)c1cnc2c(c1)oc(=O)n2C` was 110 to 112 °C. Regarding `CCCCc1nc(-c2ccc(N3CCN(C(=O)c4ccccc4C(F)(F)F)CC3)nn2)no1`, the melting point came out at 175 °C. The same measure for `CCCCCCCCCCCCCCCCCC(=O)Nc1cccc(C(=O)N(CC(=O)OCC)CC(=O)OCC)c1`: 76 to 79 °C; for `Cc1cn(COC(CO)CO)c(=O)[nH]c1=O`: 156 to 157 °C; for `CS(=O)(=O)NC(=O)C1(CCCCCCCCCCCCC2(C(=O)NS(C)(=O)=O)CC2)CC1`: 148 °C. The same measure for `C=CCn1c(SCCF)n[nH]c1=O`: 65 °C.

`Clc1cc(CCc2ccccn2)c2oc(-c3cnc4ccccc4c3)nc2c1`: the melting point is 124 to 125 °C. `CNc1ccc(Sc2nnnn2C)c2cc(-c3nccs3)[nH]c12` had a melting point of 211 °C. The value for `O=Cc1csc(Oc2ccccc2)n1` was 63 °C; that for `O=C(O)CN(C(=O)OCc1ccccc1)C1CCCC1` was 110 °C; that for `N#CCCN1CCC(c2noc3cc(F)ccc23)CC1` was 100 to 101 °C.

On to `CC(C(=O)Oc1cc(=O)n(-c2cccc(C(F)(F)F)c2)c2ncccc12)c1ccccc1` (stereo not given), for which the melting point lay within 42 to 57 °C.

`CCOC(=O)c1c(Cl)c2cnccc2[nH]c1=O` gave a melting point of 219 °C. `CCC(=O)c1cnc(C(=O)C(C)C)cn1` returned a melting point of 70 to 71 °C. The value for `N#Cc1ccc(C2C(=O)N(Cc3ccc(F)cc3)Cc3cncn32)cc1` (stereo not given) was 132 to 135 °C; that for `CS(=O)(=O)c1ccc(C2=C(c3ccc(F)cc3)C(=O)OC2)c(F)c1` was 160 to 162 °C. The same measure for `CS(=O)(=O)Nn1c(=O)[nH]c2cc(C(F)(F)F)c(Oc3cccnc3)cc2c1=O`: 194 to 196 °C. The same measure for `Clc1nc(-c2ncccn2)nc(Cl)c1-c1cccs1`: 159 to 160 °C; for `COc1ccc(C(=O)Nc2ccccc2)cc1NCc1cc(C)cc(C)c1`: 168 to 170 °C; for `CCCCCCCCCCCCCCCCOCC(CN)COC` (stereo not given): 49 to 51 °C. The compound `COc1cc(Nc2cn(Cc3ccccc3)c(=O)c3ccccc23)cc(OC)c1OC` registered a melting point of 162 to 164 °C. Consider `Cc1ccc2[nH]c(=O)n3c(=O)[nH]nc3c2c1C`, for which the melting point was above 350 °C. The value for `CC(=O)C=C1C=C(C(C)(C)C)C(=O)C(C(C)(C)C)=C1` was 70 to 72 °C; that for `O=Cc1cccc2c1OC(c1ccccc1)CC2=O` (stereo not given) was 112 to 113 °C; that for `CCOC(=O)Cc1ccc(CNC(=O)C=Cc2ccc3[nH]cc(CC#N)c3c2)cc1` was 125 to 130 °C. As to `COc1ccc2c(c1OC)SCCC2C#N` (stereo not given), the melting point was in the range of 116 to 118 °C. The same measure for `CCOC(=O)c1c(-c2cc(C)c(O)c(C)c2)c(C)n2c1-c1cc(N)c(OC)cc1CC2`: 104 to 106 °C.

`COc1ccc2[nH]c(SC/C=C(\C)CCC=C(C)C)nc2c1`: the melting point fell in the range of 113 to 116 °C. The value for `C=Cc1ccc(OCc2ccccc2)cc1` was 68 to 69 °C; that for `COCOc1ccc(C=O)c(O)c1` was 52 to 53 °C. The value for `Cc1nn(C)c2c1N=CN1CC(C)N=C21` (stereo not given) was 115 to 117 °C; that for `CNc1nc(N)nc2c1ncn2C1C=CC(CO)C1` (stereo not given) was 221 to 223 °C; that for `CC(C)(C)c1ccc(OS(C)(=O)=O)c(C(C)(C)C)c1` was 63 °C. The same measure for `O=C1Cn2c(c(Cl)c3ccccc32)-c2cc(Cl)ccc2N1`: 267 to 271 °C.

`CC(=O)OCC1OC(n2cc(C3=C(n4ccnc4)C(=O)N(C)C3=O)c3cccnc32)C(OC(C)=O)C(OC(C)=O)C1OC(C)=O` (stereo not given): the melting point lay within 88 to 90 °C.

Compound `N#CC(C(=O)C(F)(F)F)c1cccc(Cl)c1Cl` (stereo not given) showed a melting point of 74 to 75 °C. For the compound `CC(CSC(=O)c1ccccc1)C(=O)N(CC(=O)O)C1CCC(c2ccccc2)CC1` (stereo not given), the melting point fell in the range of 180 to 181 °C. The value for `COC(=O)Cc1ccc(OCC(C)NC(C)C(O)c2ccccc2)cc1` (stereo not given) was 122 °C. `O=c1[nH]c(=Cc2ccco2)c(=O)[nH]c1=Cc1ccc(OCc2ccccc2)cn1` gave a melting point of 256 to 257 °C. `COc1ccccc1C(=O)c1cc([N+](=O)[O-])ccc1SC` returned a melting point of 119 to 122 °C.

In turn, `Nn1cc(Cl)c(=O)[nH]c1=O` yielded a melting point of 224 to 225 °C. In turn, `CCC(Cc1ccccc1)(C(=O)c1ccc(N(C)C)cc1)N(C)C` (stereo not given) had a melting point of 77 to 80 °C. The value for `O=C1c2cccc3c([N+](=O)[O-])ccc(c23)C(=O)N1O` was 255 to 260 °C; that for `O=C1c2ccccc2C(=O)N1Cc1cnc2n1-c1ccc(Cl)cc1C(c1ccccc1Cl)=NC2` was 218 to 220 °C; that for `CCCCCCCc1ccc(C(=O)Cc2ccccc2C(=O)O)cc1` was 128 to 131 °C.

Compound `CCc1nc2c(N)nc3cc(OCC(=O)c4ccsc4)ccc3c2s1` returned a melting point of 202 to 203 °C. Compound `c1ccc(Cn2ncc3c2-c2ccccc2C3(Cc2ccncc2)Cc2ccncc2)cc1` registered a melting point of 154 to 155 °C.

The compound `C[C@@H]1c2onc(-c3ccc(Cl)cc3)c2CC[C@H]1C(=O)O` (relative stereo) yielded a melting point of 183 to 186 °C. The same measure for `COc1ccc(C2(C#N)CCC(=O)CC2)c2c1OCCO2`: 157 to 161 °C; for `O=C(Nc1nc(C(Cl)(Cl)Cl)ns1)c1ccccc1`: 190 °C. The same measure for `Cc1cc(C)c2nc(C)n(Cc3ccc(NCC4CCN(C5CCN(C)CC5)CC4)cc3)c2n1`: 118 to 120 °C.

Compound `CC(C)NCC(O)COc1ccc2c(c1)OC(C)CC2` (stereo not given) came in with a melting point of 79 to 81 °C. In the case of `COc1ccc(-c2ccc3nnc(-c4ccccc4OC)n3n2)cc1OC`, the melting point fell in the range of 95 to 97 °C. The value for `Cc1nc(C)n(-c2cc([C@@H]3C[C@H]3c3nc4ccccc4n3C)nc(C(F)(F)F)n2)n1` (relative stereo) was 151 to 153 °C. As for `C#Cc1ccc(Oc2cc(C(=O)Cl)cc(C(=O)Cl)c2)cc1`, the melting point is 68 to 69 °C. The same measure for `C=Cc1cc(C)nc2c(OCc3ccccc3)cccc12`: 114 °C.

`O=Cc1c2ccc(Cl)cc2c(Cl)c2ccc(Cl)cc12` yielded a melting point of 269 to 271 °C. The value for `O=[N+]([O-])c1ccc(CF)cc1[N+](=O)[O-]` was 37.5 to 38.5 °C.

These data come from a melting point compilation (Tetko et al.; mined from patent text by program, amines drawn as free bases though some values may be those of a salt).
